Values quoted from earlier work, collected in publication PMC9669016, “First-in-human phase Ia study of the PI3Kα inhibitor CYH33 in patients with solid tumors” (Nature Communications, 2022).
Where “and” joins values, the source holds several entries; their conditions need not be identical. Equal values may be shown once.

Columns and labels:
[1] = tested on: patients with PIK3CA-mutated HR+/HER2– breast cancer / PIK3CA-altered solid tumors; conditions: cited from earlier work
[2] = tested on: KYSE410, KYSE510, EC104, EC063, EC074 xenograft models; design: method as in Investigator's Brochure (IB) 12; conditions: 12.5 mg/kg; 9 values for 5 models, model column not assignable; ref Investigator's Brochure (IB) 12; listed as BYL-719; cited from earlier work

SMILES: Cc1nc(NC(=O)N2CCC[C@H]2C(N)=O)sc1-c1ccnc(C(C)(C)C(F)(F)F)c1 [alpelisib]
- frequency of diarrhea [1]: 57.7%
- incidence of rash [1]: 64.0%
- improvement in median overall survival ([1]; phase III SOLAR-1, alpelisib plus fulvestrant vs fulvestrant plus placebo, advanced PIK3CA-mutated HR+/HER2– breast cancer): 7.9 month
- incidence of rash with prophylactic anti-rash medication ([1]; within the first 4–8 weeks of treatment): 24.6%
- T/C% (tumor/control ratio) [2]: 29.09% and 47.62%
